Consider 25 molecules from patent US20030162777A1, “Novel N-acylated heterocycles” (Recordati S.A., priority 2001, published 2003).

The assay concerns the target T1, human 5HT1A-serotonergic receptor (Homo sapiens, UniProt P08908).
T1 construct: expressed in transfected cells; host or cells: HeLa (human cell line), stably transfected; cell membranes used
T1 sequence (P08908 1-422): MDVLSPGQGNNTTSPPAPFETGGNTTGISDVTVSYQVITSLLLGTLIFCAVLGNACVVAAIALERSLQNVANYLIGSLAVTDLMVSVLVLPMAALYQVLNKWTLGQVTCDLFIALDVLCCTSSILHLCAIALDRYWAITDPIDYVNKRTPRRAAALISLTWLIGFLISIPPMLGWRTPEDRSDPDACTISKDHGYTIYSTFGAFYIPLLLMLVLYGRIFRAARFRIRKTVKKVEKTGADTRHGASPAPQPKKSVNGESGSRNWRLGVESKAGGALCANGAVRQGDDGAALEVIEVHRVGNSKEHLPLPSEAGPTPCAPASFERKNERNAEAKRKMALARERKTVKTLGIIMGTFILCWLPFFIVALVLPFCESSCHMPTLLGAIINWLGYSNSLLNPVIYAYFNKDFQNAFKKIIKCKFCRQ
Kind of assay: Radioligand binding to recombinant 5-HT1A receptors. The following applies: [3H]8-OH-DPAT 1 nM, membranes of HeLa cells with human 5-HT1A receptor; Ki from IC50 by Cheng & Prusoff; read-out: Binding affinity for 5HT1A receptors, Ki. As for the experimental part:
Genomic clone G-21 coding for the human 5HT1A-serotonergic receptor was stably transfected in a human cell line (HeLa). HeLa cells were grown as monolayers in Dulbecco's modified Eagle medium (DMEM), containing 10% foetal bovine serum, gentamicin ([…]) and 5% carbon dioxide, at 37° C. The cells were detached from the growth flask at 95% confluence by a cell scraper and were lysed in cold 5 mM Tris and 5 mM EDTA buffer (pH 7.4). The homogenates were centrifuged at 40000×g×20 minutes and the pellets were resuspended in a small volume of cold 5 mM Tris and 5 mM EDTA buffer (pH 7.4) and immediately frozen and stored at −70° C. until use. On the day of experiment, the cell membranes were resuspended in incubation buffer: 50 mM Tris HCl (pH 7.4), 2.5 mM MgCl2, […] (Fargin et al., Nature 335, 358-360, 1988). The membranes were incubated in a final volume of 1 ml for 30 minutes at 30° C. with 1 nM [^3H]8-OH-DPAT, in the absence or presence of the test compounds. Non-specific binding was determined in the presence of 10 μM 5-HT. Incubation was stopped by addition of cold Tris-HC 1 buffer and rapid filtration through a 0.2%-polyethyleneimine-pretreated Whatman-GF/B or Schleicher-&-Schuell-GF52 filter.
The affinity of the tested compounds was evaluated as inhibition of specific binding of the radioligand to 5-HT1A receptors (IC50) by using the non-linear curve-fitting program Allfit (De Lean et al., Am. J. Physiol. 235, E97-E102 (1978). The IC50 value was converted to an affinity constant (Ki) by the equation of Cheng & Prusoff (Cheng Y. C., Prusoff W. H., Biochem. Pharmacol. 22, 3099-3108 (1973)).
Take “1-(2-Ethylbutanoyl-1,2,3,4-tetrahydroquinoline-2-ylmethyl)-4-(4-indolyl)piperazine [Example 24A]”: the Ki stood at 12.9 nM.

Turning to `O=C(COc1ccc(Cl)cc1)N1c2ccccc2CCC1CN1CCN(c2cccc3[nH]ccc23)CC1` (stereo not shown) [Example 68A51, 1-[1-[2-(4-Chlorophenoxy)acetyl]-1,2,3,4-tetrahydroquinoline-2-ylmethyl]-4-(4-indolyl)piperazine], the Ki worked out at 15.6 nM.

For the molecule `O=C(C1CCCCC1)N1c2c(F)cccc2CCC1CN1CCN(c2cccc3[nH]ccc23)CC1` (stereo not shown) [Example 38, 1-(1-Cyclohexanecarbonyl-8-fluoro-1,2,3,4-tetrahydroquinoline-2-ylmethyl)-4-(4-indolyl)piperazine], the inhibitory constant (Ki) was found to be 17.3 nM.

With `O=C(CC1CC1)N1c2ccccc2CCC1CN1CCN(c2nccc3ccccc23)CC1` (stereo not shown) [Example 75A2, 1-[1-(2-Cyclopropylacetyl)-1,2,3,4-tetrahydroquinolin-2-ylmethyl]-4-(1-isoquinolinyl)piperazine], the Ki was determined as 10.1 nM.

In the case of `COc1ccc(C(=O)N2c3ccccc3CCC2CN(C)CCOc2ccccc2OC)cc1` (stereo not shown) [Example 77A5, N-[1-(4-Methoxybenzoyl)-1,2,3,4-tetrahydroquinolin-2-ylmethyl]-N-[2-(2-methoxyphenoxy)ethyl]methylamine], the inhibition constant Ki stood at 13.1 nM.

On to `O=C(C1CCCCC1)N1c2ccccc2CCC1CN1CCN(c2ncccc2C(F)(F)F)CC1` (stereo not shown) [Example 72A6, 1-(1-Cyclohexanecarbonyl-1,2,3,4-tetrahydroquinolin-2-ylmethyl)-4-(3-trifluoromethylpyridin-2-yl)piperazine], for which the inhibition constant Ki turned out to be 3.2 nM.

`O=C(c1cccs1)N1c2ccccc2CCC1CN1CCN(c2cccc3[nH]ccc23)CC1` (stereo not shown) [Example 68A19, 1-(4-Indolyl)-4-[1-(2-thienylcarbonyl)-1,2,3,4-tetrahydroquinoline-2-ylmethyl]piperazine]: the inhibition constant Ki stood at 4.1 nM.

For `O=C(c1ccc(N2CCOCC2)nc1)N1c2ccccc2CCC1CN1CCN(c2cccc3[nH]ccc23)CC1` (stereo not shown) [Example 68A52, 1-(4-Indolyl)-4-[1-[2-(4-morpholinyl)pyridine-5-carbonyl]-1,2,3,4-tetrahydroquinoline-2-ylmethyl]piperazine], the inhibition constant (Ki) turned out to be 18.3 nM.

As to `N#Cc1ccc(Cl)cc1N1CCN(CC2CCc3ccccc3N2C(=O)C2CCCCC2)CC1` (stereo not shown) [Example 35A23, 1-(5-chloro-2-cyanophenyl)-4-(1-cyclohexanecarbonyl-1,2,3,4-tetrahydroquinoline-2-ylmethyl)piperazine], the Ki stood at 3.1 nM.

On to `N#Cc1ccc(C(=O)N2c3ccccc3CCC2CN2CCN(c3nccc4ccccc34)CC2)cc1` (stereo not shown) [Example 75A6, 1-[1-(4-Cyanobenzoyl)-1,2,3,4-tetrahydroquinolin-2-ylmethyl]-4-(1-isoquinolinyl)piperazine], for which the inhibition constant Ki stood at 4.3 nM.

For the molecule `CN(CCOc1ccccc1Cl)CC1CCc2ccccc2N1C(=O)C1CCCCC1` (stereo not shown) [Example 72A84, N-(1-Cyclohexanecarbonyl-1,2,3,4-tetrahydroquinolin-2-ylmethyl)-2-(2-chlorophenoxy)ethylmethylamine], the Ki stood at 15.7 nM.

Take `COc1ccc(C(=O)N2c3cccc(Cl)c3CCC2CN2CCN(c3ccc(F)cc3OC)CC2)cc1` (stereo not shown) [Example 56, 1-[5-Chloro-1-(4-methoxybenzoyl)-1,2,3,4-tetrahydroquinoline-2-ylmethyl]-4-(4-fluoro-2-methoxyphenyl)piperazine]: the Ki was determined as 3.6 nM.

Regarding `CC(C)(C)OC(=O)N1CCC[C@H]1C(=O)N1c2ccccc2CCC1CN1CCN(c2cccc3[nH]ccc23)CC1` (stereo partly drawn) [Example 71A5, 1-[1-(1-tert-Butoxycarbonyl-(2S)-pyrrolidin-2yl)carbonyl-1,2,3,4-tetrahydroquinoline-2-ylmethyl]-4-(4-indolyl)piperazine], the inhibition constant Ki was 45 nM.

Take `CCn1ccc2c(N3CCN(CC4CCc5ccccc5N4C(=O)C4CCCCC4)CC3)cccc21` (stereo not shown) [Example 62A, 1-(1-Cyclohexanecarbonyl-1,2,3,4-tetrahydroquinoline-2-ylmethyl)-4-(1-ethyl-4-indolyl)piperazine]: the Ki stood at 43.4 nM.

As to `COc1cc(F)ccc1N1CCN(CC2CCc3ccccc3N2C(=O)CC(C)C)CC1` (stereo not shown) [Example 74A, 1-(4-Fluoro-2-methoxyphenyl)-4-[1-(3-methylbutanoyl)-1,2,3,4-tetrahydroquinolin-2-ylmethyl]piperazine], the inhibitory constant (Ki) is 17.6 nM.

`O=C(CCOCc1ccccc1)N1c2ccccc2CCC1CN1CCN(c2ccccc2OCC(F)(F)F)CC1` (stereo not shown) [Example 8, 1-[1-(3-Benzyloxypropionyl)-1,2,3,4-tetrahydroquinoline-2-ylmethyl]-4-[2-(2,2,2-trifluoroethoxy)phenyl]piperazine]: the inhibitory constant (Ki) worked out at 10.3 nM.

For `Cc1ccc(N2CCN(CC3CCc4ccccc4N3C(=O)C3CCCCC3)CC2)c2cc[nH]c12` (stereo not shown) [Example 62A5, 1-(1-Cyclohexanecarbonyl-1,2,3,4-tetrahydroquinoline-2-ylmethyl)-4-(7-methyl-4-indolyl)piperazine], the Ki is 31.2 nM.

`COc1ccc(C(=O)N2c3ccccc3CCC2CN2CCN(c3nccc4ccccc34)CC2)cc1` (stereo not shown) [Example 75A5, 1-(1-Isoquinolinyl)-4-[1-(4-methoxybenzoyl)-1,2,3,4-tetrahydroquinolin-2-ylmethyl]piperazine]: the Ki stood at 2.6 nM.

Take `O=C(Cc1ccccc1C(F)(F)F)N1c2ccccc2CCC1CN1CCN(c2cccc3[nH]ccc23)CC1` (stereo not shown) [Example 68A64, 1-(4-Indolyl)-4-[1-[2-(2-trifluoromethylphenylacetyl)]-1,2,3,4-tetrahydroquinoline-2-ylmethyl]piperazine]: the inhibitory constant (Ki) came to 13.4 nM.

Regarding `O=C(C1CCCCC1)N1c2ccc(O)cc2CCC1CN1CCN(c2cccc3[nH]ccc23)CC1` (stereo not shown) [Example 50, 1-(1-Cyclohexanecarbonyl-6-hydroxy-1,2,3,4-tetrahydroquinoline-2-ylmethyl)-4-(4-indolyl)piperazine], the inhibition constant Ki was 41 nM.

For `O=C(Cc1cccs1)N1c2ccccc2CCC1CN1CCN(c2cccc3[nH]ccc23)CC1` (stereo not shown) [Example 68A39, 1-(4-Indolyl)-4-[1-[2-(2-thienylacetyl)]-1,2,3,4-tetrahydroquinoline-2-ylmethyl]piperazine], the Ki turned out to be 6.8 nM.

For the molecule `N#Cc1ccc(S(=O)(=O)N2c3ccccc3CCC2CN2CCN(c3cccc4[nH]ccc34)CC2)cc1` (stereo not shown) [Example 70A5, 1-[1-(4-Cyanophenylsulphonyl)-1,2,3,4-tetrahydroquinoline-2-ylmethyl]-4-(4-indolyl)piperazine], the inhibition constant Ki amounted to 40.3 nM.

With `O=C(Cc1cccs1)N1c2ccccc2CCC1CN1CCN(c2cccc3c2OCCO3)CC1` (stereo not shown) [Example 76A6, 1-(2,3-Dihydrobenzo[1,4]dioxin-5-yl)-4-[1-[2-(2-thienyl)acetyl]-1,2,3,4-tetrahydroquinolin-2-ylmethyl]piperazine], the inhibition constant Ki came out at 5.5 nM.

For the molecule `O=C(COCc1ccccc1)N1c2ccccc2CCC1CN1CCN(c2cccc3[nH]ccc23)CC1` (stereo not shown) [Example 68A44, 1-(4-Indolyl)-4-[1-(2-phenylmethoxyacetyl)-1,2,3,4-tetrahydroquinoline-2-ylmethyl]piperazine], the inhibitory constant (Ki) was found to be 20.7 nM.

`O=C(C1CCCCC1)N1c2ccccc2CC1CN1CCN(c2cccc3[nH]ccc23)CC1` (stereo not shown) [Example 48, 1-(1-Cyclohexanecarbonyl-2,3-dihydroindole-2-ylmethyl)-4-(4-indolyl)piperazine]: the Ki was determined as 17.7 nM.
